The source made the active and inactive calls. The calls are words filed in the database; no cut-off is given here.
Legend:
[1] = molecular target: T1, D(3) dopamine receptor (Homo sapiens, UniProt P35462); experiment: Agonist activity at human dopamine D3 receptor expressed in CHO cells after 90 mins by [35S]-GTPgamma S assay; assay type: cell-based
[2] = molecular target: D(3) dopamine receptor (Rattus norvegicus, UniProt P19020)
Description: Displacement of [125I]-7-OH-PIPAT from rat brain dopamine D3 receptor after 45 mins by microplate scintillation counting analysis

[3] = molecular target: T1, D(3) dopamine receptor; experiment: Antagonist activity at human dopamine D3 receptor expressed in CHO cells after 90 mins by [35S]-GTPgamma S assay; assay type: cell-based
[4] = molecular target: Voltage-gated inwardly rectifying potassium channel KCNH2 (Homo sapiens, UniProt Q12809); experiment: Displacement of [3H]-dofetilide from human ERG potassium channel by scintillation proximity assay
Voltage-gated inwardly rectifying potassium channel KCNH2, sequence (Q12809 whole entry): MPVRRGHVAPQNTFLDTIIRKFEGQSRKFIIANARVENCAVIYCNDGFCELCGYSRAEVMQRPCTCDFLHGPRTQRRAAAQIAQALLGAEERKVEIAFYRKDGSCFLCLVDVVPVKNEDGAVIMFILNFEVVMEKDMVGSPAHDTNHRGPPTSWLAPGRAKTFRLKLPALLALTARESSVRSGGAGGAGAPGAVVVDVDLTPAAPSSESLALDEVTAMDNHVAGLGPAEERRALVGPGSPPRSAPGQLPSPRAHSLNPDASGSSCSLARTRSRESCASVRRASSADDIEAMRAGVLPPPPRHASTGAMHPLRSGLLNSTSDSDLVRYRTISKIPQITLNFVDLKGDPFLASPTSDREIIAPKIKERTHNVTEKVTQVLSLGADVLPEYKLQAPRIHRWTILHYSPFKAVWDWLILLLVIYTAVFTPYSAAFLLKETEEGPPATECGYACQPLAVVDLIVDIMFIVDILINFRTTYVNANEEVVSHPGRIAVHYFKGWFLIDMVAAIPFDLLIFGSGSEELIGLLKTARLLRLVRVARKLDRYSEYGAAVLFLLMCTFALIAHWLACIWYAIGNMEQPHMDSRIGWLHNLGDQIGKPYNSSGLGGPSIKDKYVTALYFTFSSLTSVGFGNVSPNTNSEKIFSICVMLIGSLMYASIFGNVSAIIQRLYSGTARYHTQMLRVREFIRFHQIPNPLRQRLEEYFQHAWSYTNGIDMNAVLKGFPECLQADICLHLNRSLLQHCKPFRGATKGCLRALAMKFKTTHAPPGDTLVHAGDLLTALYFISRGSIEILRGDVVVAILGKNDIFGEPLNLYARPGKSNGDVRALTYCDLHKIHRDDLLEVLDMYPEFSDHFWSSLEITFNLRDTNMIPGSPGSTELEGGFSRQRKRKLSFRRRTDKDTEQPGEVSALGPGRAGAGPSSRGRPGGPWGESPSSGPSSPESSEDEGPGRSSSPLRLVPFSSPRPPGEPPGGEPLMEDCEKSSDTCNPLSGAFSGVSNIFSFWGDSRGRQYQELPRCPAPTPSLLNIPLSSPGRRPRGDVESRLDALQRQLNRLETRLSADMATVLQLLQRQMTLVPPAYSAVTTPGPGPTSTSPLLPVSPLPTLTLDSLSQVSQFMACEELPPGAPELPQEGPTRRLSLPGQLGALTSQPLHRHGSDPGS

[5] = molecular target: T2, Muscarinic acetylcholine receptor M1 (Homo sapiens, UniProt P11229); experiment: Antagonist activity at muscarinic M1 receptor (unknown origin)
T2 sequence (P11229 whole entry): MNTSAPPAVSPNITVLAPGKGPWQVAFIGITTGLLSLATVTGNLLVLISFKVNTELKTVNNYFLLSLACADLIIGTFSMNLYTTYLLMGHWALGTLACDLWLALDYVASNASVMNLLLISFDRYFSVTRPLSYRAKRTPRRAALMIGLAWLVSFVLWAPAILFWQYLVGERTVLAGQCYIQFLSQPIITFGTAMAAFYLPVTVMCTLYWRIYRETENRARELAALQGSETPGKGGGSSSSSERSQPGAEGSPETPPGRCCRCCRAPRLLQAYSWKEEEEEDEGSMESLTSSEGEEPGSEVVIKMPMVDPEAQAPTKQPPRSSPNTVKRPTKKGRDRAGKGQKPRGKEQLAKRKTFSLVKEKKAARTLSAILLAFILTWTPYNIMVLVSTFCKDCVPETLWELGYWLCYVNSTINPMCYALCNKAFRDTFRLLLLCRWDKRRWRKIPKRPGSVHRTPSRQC

[6] = molecular target: Muscarinic acetylcholine receptor M3 (Homo sapiens, UniProt P20309); experiment: Binding affinity to muscarinic M3 receptor (unknown origin)
Muscarinic acetylcholine receptor M3, sequence (P20309 whole entry, looked up): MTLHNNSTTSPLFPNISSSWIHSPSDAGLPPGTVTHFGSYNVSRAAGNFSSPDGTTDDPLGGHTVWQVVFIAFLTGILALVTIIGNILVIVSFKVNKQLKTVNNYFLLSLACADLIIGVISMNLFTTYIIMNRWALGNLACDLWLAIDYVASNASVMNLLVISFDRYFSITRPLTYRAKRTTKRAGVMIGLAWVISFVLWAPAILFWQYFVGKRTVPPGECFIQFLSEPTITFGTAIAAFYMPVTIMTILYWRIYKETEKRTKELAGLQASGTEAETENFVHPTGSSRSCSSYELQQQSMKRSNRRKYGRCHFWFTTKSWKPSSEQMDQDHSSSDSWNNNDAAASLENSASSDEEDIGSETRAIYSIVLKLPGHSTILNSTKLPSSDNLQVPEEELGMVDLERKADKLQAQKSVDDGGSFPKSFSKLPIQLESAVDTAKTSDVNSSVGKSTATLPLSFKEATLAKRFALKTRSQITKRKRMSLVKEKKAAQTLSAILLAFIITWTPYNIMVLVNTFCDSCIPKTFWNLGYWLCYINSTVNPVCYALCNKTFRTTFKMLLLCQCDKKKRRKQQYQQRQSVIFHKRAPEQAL

[7] = molecular target: D(1A) dopamine receptor (Homo sapiens, UniProt P21728); experiment: Binding affinity to dopamine D1 receptor (unknown origin)
D(1A) dopamine receptor, sequence (P21728 whole entry): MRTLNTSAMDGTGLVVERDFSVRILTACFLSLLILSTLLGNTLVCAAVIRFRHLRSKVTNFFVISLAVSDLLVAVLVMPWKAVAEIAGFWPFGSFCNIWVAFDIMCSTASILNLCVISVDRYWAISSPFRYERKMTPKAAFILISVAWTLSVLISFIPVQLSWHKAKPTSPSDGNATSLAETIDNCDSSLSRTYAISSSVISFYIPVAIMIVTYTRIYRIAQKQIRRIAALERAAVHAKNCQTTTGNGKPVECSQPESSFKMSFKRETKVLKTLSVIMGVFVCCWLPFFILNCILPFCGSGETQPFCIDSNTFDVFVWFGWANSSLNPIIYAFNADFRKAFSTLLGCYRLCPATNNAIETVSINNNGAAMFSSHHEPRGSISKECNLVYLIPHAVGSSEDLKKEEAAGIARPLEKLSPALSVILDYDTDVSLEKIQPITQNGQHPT

[8] = molecular target: T3, D(4) dopamine receptor (Homo sapiens) (UniProt P21917); experiment: Binding affinity to dopamine D4 receptor (unknown origin)
T3 sequence (whole entry): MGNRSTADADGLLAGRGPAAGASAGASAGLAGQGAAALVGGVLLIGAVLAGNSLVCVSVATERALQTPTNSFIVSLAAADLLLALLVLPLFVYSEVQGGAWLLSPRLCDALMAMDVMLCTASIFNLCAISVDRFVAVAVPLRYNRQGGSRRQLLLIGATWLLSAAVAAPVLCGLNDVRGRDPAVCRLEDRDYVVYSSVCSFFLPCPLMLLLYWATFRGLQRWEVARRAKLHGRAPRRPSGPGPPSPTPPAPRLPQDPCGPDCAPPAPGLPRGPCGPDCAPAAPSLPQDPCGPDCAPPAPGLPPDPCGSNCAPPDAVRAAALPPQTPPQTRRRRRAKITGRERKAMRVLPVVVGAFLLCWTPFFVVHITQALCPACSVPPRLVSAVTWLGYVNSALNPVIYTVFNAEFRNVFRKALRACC

[9] = molecular target: Cytochrome P450 2D6 (Homo sapiens, UniProt P10635); experiment: Inhibition of human CYP2D6 expressed in bactosome; assay type: ADME
Cytochrome P450 2D6, sequence (P10635 whole entry): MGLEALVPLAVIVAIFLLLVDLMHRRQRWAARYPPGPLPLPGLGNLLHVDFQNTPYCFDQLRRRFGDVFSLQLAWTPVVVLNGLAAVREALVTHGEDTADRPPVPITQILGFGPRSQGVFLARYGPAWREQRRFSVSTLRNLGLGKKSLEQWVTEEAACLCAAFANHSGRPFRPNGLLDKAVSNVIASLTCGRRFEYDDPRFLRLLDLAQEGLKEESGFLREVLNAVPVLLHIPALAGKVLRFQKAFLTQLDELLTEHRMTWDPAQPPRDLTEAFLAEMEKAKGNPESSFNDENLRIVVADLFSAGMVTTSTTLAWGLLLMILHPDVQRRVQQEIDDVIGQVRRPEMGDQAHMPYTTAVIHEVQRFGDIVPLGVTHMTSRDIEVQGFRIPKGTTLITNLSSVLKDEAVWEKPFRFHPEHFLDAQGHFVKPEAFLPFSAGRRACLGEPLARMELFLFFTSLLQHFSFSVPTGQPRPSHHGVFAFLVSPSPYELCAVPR

[10] = molecular target: Cytochrome P450 2C19 (Homo sapiens, UniProt P33261); experiment: Inhibition of human CYP2C19 expressed in bactosome; assay type: ADME
Cytochrome P450 2C19, sequence (P33261 whole entry): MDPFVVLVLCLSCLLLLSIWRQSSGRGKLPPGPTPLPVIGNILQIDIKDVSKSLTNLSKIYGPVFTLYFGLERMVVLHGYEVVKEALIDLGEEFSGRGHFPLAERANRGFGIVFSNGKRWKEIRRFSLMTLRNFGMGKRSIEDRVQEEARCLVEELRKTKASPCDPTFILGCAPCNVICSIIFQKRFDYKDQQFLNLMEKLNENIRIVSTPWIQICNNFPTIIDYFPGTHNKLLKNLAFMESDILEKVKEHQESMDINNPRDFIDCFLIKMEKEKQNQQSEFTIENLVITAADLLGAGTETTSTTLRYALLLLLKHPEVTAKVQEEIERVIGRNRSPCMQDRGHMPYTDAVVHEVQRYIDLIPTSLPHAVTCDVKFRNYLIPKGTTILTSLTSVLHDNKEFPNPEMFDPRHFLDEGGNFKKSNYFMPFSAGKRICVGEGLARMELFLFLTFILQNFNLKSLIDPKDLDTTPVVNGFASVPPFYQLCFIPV

[11] = molecular target: Cytochrome P450 2C9 (Homo sapiens, UniProt P11712); experiment: Inhibition of human CYP2C9 expressed in bactosome; assay type: ADME
Cytochrome P450 2C9, sequence (P11712 whole entry): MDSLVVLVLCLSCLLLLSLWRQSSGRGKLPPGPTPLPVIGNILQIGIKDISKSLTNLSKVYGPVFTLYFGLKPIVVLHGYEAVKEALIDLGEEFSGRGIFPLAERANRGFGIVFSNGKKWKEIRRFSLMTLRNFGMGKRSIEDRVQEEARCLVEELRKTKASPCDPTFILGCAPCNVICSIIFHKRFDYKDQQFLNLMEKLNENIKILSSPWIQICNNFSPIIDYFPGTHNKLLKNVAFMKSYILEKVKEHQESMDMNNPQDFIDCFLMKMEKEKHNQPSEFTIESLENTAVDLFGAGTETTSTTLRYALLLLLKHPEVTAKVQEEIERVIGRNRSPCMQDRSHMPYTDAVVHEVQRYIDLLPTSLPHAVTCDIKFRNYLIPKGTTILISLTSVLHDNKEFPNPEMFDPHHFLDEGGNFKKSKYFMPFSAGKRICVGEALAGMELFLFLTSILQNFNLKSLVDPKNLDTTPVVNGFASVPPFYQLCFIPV

[12] = Fraction unbound in portal vein-cannulated rat brain; assay type: ADME, tissue-based
[13] = molecular target: T4, Cytochrome P450 3A4 (Homo sapiens, UniProt P08684); experiment: Inhibition of human CYP3A4 expressed in bactosome using 7BQ as substrate; assay type: ADME
T4 sequence (P08684 whole entry): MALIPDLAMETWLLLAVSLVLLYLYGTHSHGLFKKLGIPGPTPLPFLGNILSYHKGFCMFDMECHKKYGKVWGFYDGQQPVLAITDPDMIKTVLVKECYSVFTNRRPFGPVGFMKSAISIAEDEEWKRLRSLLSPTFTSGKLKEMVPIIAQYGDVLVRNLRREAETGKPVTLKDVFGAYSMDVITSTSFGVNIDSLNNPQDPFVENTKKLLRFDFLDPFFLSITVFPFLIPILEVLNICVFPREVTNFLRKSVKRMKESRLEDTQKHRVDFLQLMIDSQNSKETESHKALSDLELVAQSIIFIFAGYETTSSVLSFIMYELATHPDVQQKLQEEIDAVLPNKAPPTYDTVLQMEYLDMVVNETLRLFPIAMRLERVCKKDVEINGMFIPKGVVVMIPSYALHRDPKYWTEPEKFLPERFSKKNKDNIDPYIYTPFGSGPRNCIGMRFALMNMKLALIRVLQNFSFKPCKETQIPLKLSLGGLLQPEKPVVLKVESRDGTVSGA

[14] = Intrinsic clearance in human liver microsomes assessed per mg of protein; assay type: ADME; conditions: read-out: CLH
[15] = Intrinsic clearance in rat liver microsomes assessed per mg of protein; assay type: ADME; conditions: read-out: CLH
[16] = Fraction unbound in portal vein-cannulated rat blood; assay type: ADME, tissue-based
[17] = molecular target: T4, Cytochrome P450 3A4; experiment: Inhibition of human CYP3A4 expressed in bactosome using DBOMF as substrate; assay type: ADME
[18] = molecular target: T5, Cytochrome P450 1A2 (Homo sapiens, UniProt P05177); experiment: Inhibition of human CYP1A2 expressed in bactosome; assay type: ADME
T5 sequence (P05177 whole entry): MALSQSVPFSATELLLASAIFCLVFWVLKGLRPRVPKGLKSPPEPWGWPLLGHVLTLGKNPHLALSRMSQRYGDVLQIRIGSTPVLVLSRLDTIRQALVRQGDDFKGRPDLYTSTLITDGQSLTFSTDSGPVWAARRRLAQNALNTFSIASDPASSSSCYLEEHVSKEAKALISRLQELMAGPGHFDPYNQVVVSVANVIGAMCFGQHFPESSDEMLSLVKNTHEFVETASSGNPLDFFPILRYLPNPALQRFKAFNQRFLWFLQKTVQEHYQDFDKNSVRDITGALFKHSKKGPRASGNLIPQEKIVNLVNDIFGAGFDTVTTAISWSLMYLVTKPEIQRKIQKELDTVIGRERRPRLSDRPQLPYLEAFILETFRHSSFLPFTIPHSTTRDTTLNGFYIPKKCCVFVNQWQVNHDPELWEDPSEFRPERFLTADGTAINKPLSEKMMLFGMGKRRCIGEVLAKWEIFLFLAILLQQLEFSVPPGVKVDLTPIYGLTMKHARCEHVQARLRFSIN

T1 sequence (P35462 whole entry): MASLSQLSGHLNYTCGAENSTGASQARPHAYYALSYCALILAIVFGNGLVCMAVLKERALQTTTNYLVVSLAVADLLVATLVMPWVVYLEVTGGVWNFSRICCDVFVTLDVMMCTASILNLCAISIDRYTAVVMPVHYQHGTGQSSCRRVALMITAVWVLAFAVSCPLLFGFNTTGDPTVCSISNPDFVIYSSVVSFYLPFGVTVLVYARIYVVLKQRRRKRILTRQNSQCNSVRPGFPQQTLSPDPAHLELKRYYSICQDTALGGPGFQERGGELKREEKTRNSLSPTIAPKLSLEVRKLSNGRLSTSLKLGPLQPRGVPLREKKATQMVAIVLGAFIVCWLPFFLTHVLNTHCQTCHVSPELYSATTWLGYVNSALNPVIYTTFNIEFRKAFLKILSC
D(3) dopamine receptor (Rattus norvegicus, UniProt P19020), sequence (P19020 whole entry): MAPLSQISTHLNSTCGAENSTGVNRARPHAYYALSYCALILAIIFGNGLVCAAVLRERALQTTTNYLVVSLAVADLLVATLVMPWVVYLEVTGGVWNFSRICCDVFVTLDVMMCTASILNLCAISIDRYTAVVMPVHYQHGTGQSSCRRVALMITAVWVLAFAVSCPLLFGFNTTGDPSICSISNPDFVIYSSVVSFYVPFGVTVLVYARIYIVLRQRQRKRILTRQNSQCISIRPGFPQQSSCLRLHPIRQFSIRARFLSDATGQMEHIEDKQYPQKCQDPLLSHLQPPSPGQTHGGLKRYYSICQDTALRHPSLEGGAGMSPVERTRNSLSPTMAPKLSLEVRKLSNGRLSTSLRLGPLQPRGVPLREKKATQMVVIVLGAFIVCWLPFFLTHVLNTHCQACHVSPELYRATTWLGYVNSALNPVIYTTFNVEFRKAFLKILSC

Compound	Ki [1]	Ki [2]	Ki [3]	also measured
Cn1c(SCCCN2CCOC(c3ccc(C(F)(F)F)cc3)C2)nnc1-c1ccncc1 (racemic)	> 10000 nM	100 nM	–	–
Cc1ncoc1-c1nnc(SCCCCN2CCOC(c3ccc(C(F)(F)F)cc3)C2)n1C (racemic)	> 10000 nM	79.4 nM	25.1 nM	–
Cn1c(SCCCN2CCOC(c3ccc(C(F)(F)F)cc3)C2)nnc1-c1ccc(-c2ncco2)cc1 (racemic)	> 10000 nM	5.01 nM	10 nM	Ki [4]: 1000 nM
Cn1c(SCCCN2CCOC(c3ccc(C(F)(F)F)cc3)C2)nnc1-c1ccsc1 (racemic)	> 10000 nM	100 nM	–	–
Cn1c(SCCCN2CCOC(c3ccc(C(F)(F)F)cc3)C2)nnc1-c1cccc(C(N)=O)c1 (racemic)	> 10000 nM	316 nM	–	–
Cc1ccc(C2CN(CCCSc3nnc(-c4ccc(-c5noc(C)n5)cc4)n3C)CCO2)cc1 (racemic)	> 10000 nM	79.4 nM	15.8 nM	Ki [4]: 1000 nM
Cn1cncc1-c1nnc(SCCCN2CCOC(c3ccc(C(F)(F)F)cc3)C2)n1C (racemic)	> 10000 nM	631 nM	–	–
Cn1c(SCCCN2CCOC(c3ccc(C(F)(F)F)cc3)C2)nnc1-c1ccc(C(N)=O)nc1 (racemic)	> 10000 nM	31.6 nM	15.8 nM	Ki [4]: 2000 nM
Cc1ncoc1-c1nnc(SCCCN2CCOC(c3ccc(C(F)(F)F)cc3)C2)n1C (racemic)	–	126 nM	–	–
Cc1ncoc1-c1nnc(SCCCN2CCOC(c3ccc(C(F)(F)F)cc3F)C2)n1C (racemic)	> 10000 nM	200 nM	–	–
Cn1c(SCCCN2CCOC(c3ccc(C(F)(F)F)cc3F)C2)nnc1-c1ccc(C(N)=O)cc1 (racemic)	> 10000 nM	63.1 nM	39.8 nM	–
Cn1c(SCCCN2CCOC(c3ccc(C(F)(F)F)cc3)C2)nnc1-c1cccnc1 (racemic)	> 10000 nM	251 nM	–	–
Cn1c(SCCCN2CCOC(c3ccc(C(F)(F)F)cc3)C2)nnc1-c1ccc(C#N)cc1 (racemic)	> 10000 nM	100 nM	–	–
Cn1cccc1-c1nnc(SCCCN2CCOC(c3ccc(C(F)(F)F)cc3)C2)n1C (racemic)	> 10000 nM	126 nM	–	–
Cn1c(SCCCN2CCOC(c3ccc(C(F)(F)F)cc3)C2)nnc1-c1ccc(S(N)(=O)=O)cc1 (racemic)	> 10000 nM	126 nM	–	–
Cc1ncoc1-c1nnc(SCCCN2CCOC(c3ccc(Br)cc3)C2)n1C (racemic)	> 10000 nM	200 nM	–	–

Compound	Ki [1]	Ki [2]	Ki [3]	also measured
Cn1c(SCCCN2CCOC(c3ccc(C(F)(F)F)cc3)C2)nnc1-c1nccs1 (racemic)	> 10000 nM	251 nM	–	–
Cn1c(SCCCN2CCOC(c3ccc(C(F)(F)F)cc3)C2)nnc1-c1ccc(-n2cnnc2)cc1 (racemic)	> 10000 nM	126 nM	–	–
Cn1c(SCCCN2CCOC(c3ccc(C(F)(F)F)cc3)C2)nnc1-c1cnccn1 (racemic)	> 10000 nM	158 nM	–	–
Cc1nc(-c2ccc(-c3nnc(SCCCN4CCOC(c5ccc(C(F)(F)F)cc5)C4)n3C)cc2)no1 (racemic)	> 10000 nM	25.1 nM	10 nM	–
CC(=O)c1ccc(-c2nnc(SCCCN3CCOC(c4ccc(C(F)(F)F)cc4)C3)n2C)cc1 (racemic)	> 10000 nM	63.1 nM	20 nM	–
Cn1c(SCCCN2CCOC(c3ccc(C(F)(F)F)cc3)C2)nnc1-c1ccc(-c2nnco2)cc1 (racemic)	> 10000 nM	15.8 nM	12.6 nM	–
Cc1ccc(C2CN(CCCSc3nnc(-c4ocnc4C)n3C)CCO2)cc1 (racemic)	> 10000 nM	501 nM	–	–
Cn1c(SCCCN2CCOC(c3ccc(C(F)(F)F)cc3)C2)nnc1-c1cncc(C(N)=O)c1 (racemic)	> 10000 nM	100 nM	–	–
Cn1c(SCCCN2CCOC(c3ccc(C(F)(F)F)cc3)C2)nnc1-c1ccc(C(N)=O)cc1 (racemic) [listing 1 of 2 here]	> 10000 nM	31.6 nM	20 nM	Ki [5]: 1000 nM; Ki [4]: 5010 nM
Cc1ncoc1-c1nnc(SCCCN2CCOC(c3ccc(F)cc3)C2)n1C (racemic)	> 10000 nM	398 nM	–	–
Cn1c(SCCCN2CCOC(c3ccc(C(F)(F)F)cc3)C2)nnc1-c1ccc(C(N)=O)cc1 (racemic) [listing 2 of 2 here]	–	–	–	Activity [6]: inactive; Activity [7]: inactive; Activity [8]: inactive
Cc1ncoc1-c1nnc(SCCCCN2CCOC(c3ccc(C(F)(F)F)cc3)C2)n1C (stereo in doubt; 11)	–	–	15.8 nM	pKi [2]: 7.1; Ki [4]: 2510 nM
Cn1c(SCCCN2CCOC(c3ccc(C(F)(F)F)cc3)C2)nnc1-c1ccc(C(N)=O)cc1 (stereo in doubt; 26)	–	15.8 nM	6.31 nM	IC50 [9]: > 30000 nM; IC50 [10]: > 30000 nM; IC50 [11]: > 30000 nM; fraction unbound [12]: 0.03; IC50 [13]: > 30000 nM; microsomal CLint [14]: 63.2 µL/min/mg; microsomal CLint [15]: 16.3 µL/min/mg; fraction unbound [16]: 0.045; IC50 [17]: > 30000 nM; IC50 [18]: > 30000 nM; Ki [4]: 6310 nM
Cn1c(SCCCN2CCOC(c3ccc(C(F)(F)F)cc3)C2)nnc1-c1ccc(-c2ncco2)cc1 (stereo in doubt; 33)	–	398 nM	–	–
Cn1c(SCCCN2CCOC(c3ccc(C(F)(F)F)cc3)C2)nnc1-c1ccc(-c2ncco2)cc1 (stereo in doubt; 34)	–	6.31 nM	3.16 nM	IC50 [9]: > 3000 nM; IC50 [10]: > 3000 nM; IC50 [11]: > 3000 nM; fraction unbound [12]: 0.005; IC50 [13]: > 3000 nM; microsomal CLint [14]: 668 µL/min/mg; microsomal CLint [15]: 114 µL/min/mg; fraction unbound [16]: 0.008; IC50 [17]: > 3000 nM; IC50 [18]: > 3000 nM; Ki [4]: 1260 nM

Reference: ChEMBL document CHEMBL3763143, “Novel morpholine scaffolds as selective dopamine (DA) D3 receptor antagonists” (Bioorg Med Chem Lett, 2016)
